Data on 19 compounds can be found in patent US20250296953A1, “3,4-THIAZOLO-STEROIDS AND METHODS OF MAKING AND USING THE SAME” (Arkansas State University - Jonesboro, priority 2018, published 2025).

SMILES strings stand for the structures.

Holding throughout (experiment): Melanoma cytotoxicity assay (resazurin)
Assay type in all cases: cell-based
For orientation: The colour change of resazurin is a common sign of viable cells or microbes.

One data set relates to SK-MEL-28. To be noted: for SK-MEL-28 (% viability): human, 24 h; for SK-MEL-28 (% inhibition): SK-MEL-28 melanoma cells, 24 hours with compound, resazurin, concentration not given. As to the method: (§1) Cytotoxicity Assay: Melanoma cells (˜4000 cells in each well) were incubated in a 96 well plates at 37° C. in 5% CO2 for 24 hours. Compounds were added in triplicates and the plate was further incubated for 24 hours. DMSO and dacarbazine were added as technical and positive controls respectively. Next day resazurin was added and the plate was further incubated for 6 hours followed by reading the plate at 544 nm (excitation) and 590 nm (emission) using BMG Labtech Fluostar Optima plate reader. IC50 values were determined by using Graphpad Prism.
(§2) On day 1, the cell line trypsinized and centrifuged to form cell pellet. The pellet was diluted in media, then counted using Countess automated cell counter. Approximately 4000 cells (198 uL) per well plated in […]. A control well of 200 uL growth media was also prepared. Wells closest to plate perimeter were filled with 200 uL PBS to prevent inner well evaporation. The 96 well plates are incubated in 37° C. incubator at 5% CO2 for 24 hours.
(§3) On day 2, compounds were added (in triplicate) along with DMSO/Dacarbazine controls (2 uL) added to bring wells to volume of 200 μL. The 96 well plates are incubated in 37° C. incubator at 5% CO2 for 24 hours.
(§4) On day 3, 40 μL of 0.15 mg/ml reszurin solution added to wells. Samples were placed in a 37° C. incubator at 5% CO2 for 6 hours. Excitation and emission for fluorescence measured at 544 nm and 590 nm using BMG Labtech Fluostar Optima plate reader
(§5) Percent viability determined by taking average of each triplicate well fluorescence and subtracting GM well reading to remove the background signal. This difference is then divided by the average of the negative control (DMSO) wells to determine percent viability.
(§6) IC50s were determined by using cereal dilution of compound to determine viability. Viabilities and concentration of cells are analyzed in Graphpad Prism by creating sigmoidal curve graph, which will determine the IC50 concentration.
(§7) We analyzed the ability of the thiazole-androstane derivatives to inhibit growth in various melanoma cell lines. The growth inhibition against melanoma cell lines of various compound is shown below in Tables 19 and 20. Inhibition results are reported as the IC50 concentration in μM of the indicated compound or as the percent viability […] of the indicated compound. NA=not available.

For another data set, the system named is SK-MEL-5. The following applies: SK-MEL-5 melanoma cells, 24 hours with compound, resazurin; concentration not given. As to the method:
as §1, §2, §3, §4, §5, §6, §7

In a further data set the test system is SK-MEL-25. To be noted: SK-MEL-25 melanoma cells, 24 hours with compound, resazurin; concentration not given. As to the method: as §1, §2, §3, §4, §5, §6, §7

In the case of `Cc1nc2c(s1)C1=CC[C@H]3[C@@H]4CC[C@H](O)[C@@]4(C)CC[C@@H]3[C@@]1(C)CC2` [III.1, (1S,2R,13R,14S,17S,18S)-2,7,18-trimethyl-8-thia-6-azapentacyclo[11.7.0.02,10.05,9.014,18]icosa-5(9),6,10-trien-17-ol], the “SK-MEL-28 (% viability)” value in the data set with SK-MEL-28 is given as 58%.

Consider `C[C@]12CC[C@H]3[C@@H](CC=C4c5sc(-c6ccccn6)nc5CC[C@@]43C)[C@@H]1CC[C@@H]2O` [III.4, (1S,2R,13R,14S,17S,18S)-2,18-dimethyl-7-(2-pyridyl)-8-thia-6-azapentacyclo[11.7.0.02,10.05,9.014,18]icosa-5(9),6,10-trien-17-ol], for which the “SK-MEL-28 (% viability)” value with SK-MEL-28 turned out to be 86%.

In the case of `C[C@]12CC[C@H]3[C@@H](CC=C4c5sc(-c6ccccc6O)nc5CC[C@@]43C)[C@@H]1CC[C@@H]2O` [III.6, (1S,2R,13R,14S,17S,18S)-7-(2-hydroxyphenyl)-2,18-dimethyl-8-thia-6-azapentacyclo[11.7.0.02,10.05,9.014,18]icosa-5(9),6,10-trien-17-ol], in the data set on SK-MEL-28, the “SK-MEL-28 (% viability)” value turned out to be 32%.

For the compound `C[C@]12CC[C@H]3[C@@H](CC=C4c5sc(-c6ccc(O)c(O)c6)nc5CC[C@@]43C)[C@@H]1CC[C@@H]2O` [III.7, 4-[(1S,2R,13R,14S,17S,18S)-17-hydroxy-2,18-dimethyl-8-thia-6-azapentacyclo[11.7.0.02,10.05,9.014,18]icosa-5(9),6,10-trien-7-yl]benzene-1,2-diol], in the data set on SK-MEL-28, the “SK-MEL-28 (% viability)” value was 11%.

As for `C[C@]12CC[C@H]3[C@@H](CC=C4c5sc(-c6ccc(Br)cc6)nc5CC[C@@]43C)[C@@H]1CC[C@@H]2O` [III.19, (1S,2R,13R,14S,17S,18S)-7-(4-bromophenyl)-2,18-dimethyl-8-thia-6-azapentacyclo[11.7.0.02,10.05,9.014,18]icosa-5(9),6,10-trien-17-ol], in the data set with SK-MEL-28, the “SK-MEL-28 (% viability)” value stood at 58%.

As for `C[C@]12CCc3sc(N)nc3C1=CC[C@@H]1[C@@H]2CC[C@]2(C)C(=O)CC[C@@H]12` [IIa.1, (1S,2R,13R,14S,18S)-7-amino-2,18-dimethyl-6-thia-8-azapentacyclo[11.7.0.02,10.05,9.014,18]icosa-5(9),7,10-trien-17-one], in the data set on SK-MEL-5, the “SK-MEL-5 (% inhibition)” value was determined as 29%. Moreover, in the data set with SK-MEL-28, the “SK-MEL-28 (% inhibition)” value is on record as 1%.

For the compound `C=CCNc1nc2c(s1)CC[C@@]1(C)C2=CC[C@@H]2[C@@H]1CC[C@]1(C)C(=O)CC[C@@H]21` [IIa.3, (1S,2R,13R,14S,18S)-7-(allylamino)-2,18-dimethyl-6-thia-8-azapentacyclo[11.7.0.02,10.05,9.014,18]icosa-5(9),7,10-trien-17-one], the “SK-MEL-5 (% inhibition)” value in the data set with SK-MEL-5 turned out to be 57%. In the data set on SK-MEL-25, the “SK-MEL-25 (% inhibition)” value was determined as 68%. Further, the “SK-MEL-28 (% inhibition)” value in the data set on SK-MEL-28 is on record as 65%.

In the case of `C[C@]12CCc3sc(NCCCN4CCOCC4)nc3C1=CC[C@@H]1[C@@H]2CC[C@]2(C)C(=O)CC[C@@H]12` [IIa.4, (1S,2R,13R,14S,18S)-2,18-dimethyl-7-(3-morpholinopropylamino)-6-thia-8-azapentacyclo[11.7.0.02,10.05,9.014,18]icosa-5(9),7,10-trien-17-one], the “SK-MEL-5 (% inhibition)” value with SK-MEL-5 was 74%. For the same compound, the “SK-MEL-25 (% inhibition)” value in the data set with SK-MEL-25 worked out at 66%.

For the compound `C[C@]12CCc3sc(NCc4ccccc4)nc3C1=CC[C@@H]1[C@@H]2CC[C@]2(C)C(=O)CC[C@@H]12` [IIa.5, (1S,2R,13R,14S,18S)-7-(benzylamino)-2,18-dimethyl-6-thia-8-azapentacyclo[11.7.0.02,10.05,9.014,18]icosa-5(9),7,10-trien-17-one], the “SK-MEL-5 (% inhibition)” value in the data set on SK-MEL-5 worked out at 46%. Besides, the “SK-MEL-25 (% inhibition)” value in the data set on SK-MEL-25 came out at 6%. The “SK-MEL-28 (% inhibition)” value in the data set with SK-MEL-28 is reported as 97%.

On to `C[C@]12CCc3sc(Nc4ccccc4)nc3C1=CC[C@@H]1[C@@H]2CC[C@]2(C)C(=O)CC[C@@H]12` [IIa.7, (1S,2R,13R,14S,18S)-7-anilino-2,18-dimethyl-6-thia-8-azapentacyclo[11.7.0.02,10.05,9.014,18]icosa-5(9),7,10-trien-17-one], for which the “SK-MEL-28 (% inhibition)” value in the data set with SK-MEL-28 is 43%.

Consider `C[C@]12CCc3nc(Nc4ccc(F)cc4)sc3C1=CC[C@@H]1[C@@H]2CC[C@]2(C)C(=O)CC[C@@H]12` [IIa.9, (1S,2R,13R,14S,18S)-7-(4-fluoroanilino)-2,18-dimethyl-8-thia-6-azapentacyclo[11.7.0.02,10.05,9.014,18]icosa-5(9),6,10-trien-17-one], for which the “SK-MEL-5 (% inhibition)” value in the data set on SK-MEL-5 was found to be 58%. In addition, the “SK-MEL-25 (% inhibition)” value in the data set with SK-MEL-25 is given as 61%. The “SK-MEL-28 (% inhibition)” value with SK-MEL-28 was determined as 90%.

In the case of `C[C@]12CCc3sc(Nc4ccccc4[N+](=O)[O-])nc3C1=CC[C@@H]1[C@@H]2CC[C@]2(C)C(=O)CC[C@@H]12` [IIa.13, (1S,2R,13R,14S,18S)-2,18-dimethyl-7-(2-nitroanilino)-6-thia-8-azapentacyclo[11.7.0.02,10.05,9.014,18]icosa-5(9),7,10-trien-17-one], the “SK-MEL-5 (% inhibition)” value in the data set with SK-MEL-5 came out at 36%. Besides, in the data set on SK-MEL-25, the “SK-MEL-25 (% inhibition)” value came to 58%. Moreover, the “SK-MEL-28 (% inhibition)” value in the data set with SK-MEL-28 is given as 6%.

In the case of `COc1ccccc1Nc1nc2c(s1)CC[C@@]1(C)C2=CC[C@@H]2[C@@H]1CC[C@]1(C)C(=O)CC[C@@H]21` [IIa.15, (1S,2R,13R,14S,18S)-7-(2-methoxyanilino)-2,18-dimethyl-6-thia-8-azapentacyclo[11.7.0.02,10.05,9.014,18]icosa-5(9),7,10-trien-17-one], the “SK-MEL-5 (% inhibition)” value in the data set on SK-MEL-5 was 76%. Further, in the data set on SK-MEL-25, the “SK-MEL-25 (% inhibition)” value turned out to be 67%. Besides, in the data set with SK-MEL-28, the “SK-MEL-28 (% inhibition)” value is 13%.

With `COc1ccc(OC)c(Nc2nc3c(s2)CC[C@@]2(C)C3=CC[C@@H]3[C@@H]2CC[C@]2(C)C(=O)CC[C@@H]32)c1` [IIa.16, (1S,2R,13R,14S,18S)-7-(2,5-dimethoxyanilino)-2,18-dimethyl-6-thia-8-azapentacyclo[11.7.0.02,10.05,9.014,18]icosa-5(9),7,10-trien-17-one], in the data set with SK-MEL-5, the “SK-MEL-5 (% inhibition)” value is on record as 81%. The “SK-MEL-25 (% inhibition)” value with SK-MEL-25 came to 70%. The “SK-MEL-28 (% inhibition)” value in the data set on SK-MEL-28 is 86%.

As for `COc1ccc(Cl)cc1Nc1nc2c(s1)CC[C@@]1(C)C2=CC[C@@H]2[C@@H]1CC[C@]1(C)C(=O)CC[C@@H]21` [IIa.20, (1S,2R,13R,14S,18S)-7-(5-chloro-2-methoxy-anilino)-2,18-dimethyl-6-thia-8-azapentacyclo[11.7.0.02,10.05,9.014,18]icosa-5(9),7,10-trien-17-one], in the data set with SK-MEL-5, the “SK-MEL-5 (% inhibition)” value was 70%. The “SK-MEL-25 (% inhibition)” value in the data set on SK-MEL-25 amounted to 83%. The “SK-MEL-28 (% inhibition)” value in the data set with SK-MEL-28 is given as 95%.

Turning to `C[C@]12CCc3sc(Nc4ccccn4)nc3C1=CC[C@@H]1[C@@H]2CC[C@]2(C)C(=O)CC[C@@H]12` [IIa.21, (1S,2R,13R,14S,18S)-2,18-dimethyl-7-(2-pyridylamino)-6-thia-8-azapentacyclo[11.7.0.02,10.05,9.014,18]icosa-5(9),7,10-trien-17-one], the “SK-MEL-5 (% inhibition)” value in the data set on SK-MEL-5 came out at 88%. For the same compound, in the data set on SK-MEL-25, the “SK-MEL-25 (% inhibition)” value came to 58%. The “SK-MEL-28 (% inhibition)” value in the data set on SK-MEL-28 was 93%.

For `C[C@]12CCc3sc(Nc4ncccn4)nc3C1=CC[C@@H]1[C@@H]2CC[C@]2(C)C(=O)CC[C@@H]12` [IIa.22, (1S,2R,13R,14S,18S)-2,18-dimethyl-7-(pyrimidin-2-ylamino)-6-thia-8-azapentacyclo[11.7.0.02,10.05,9.014,18]icosa-5(9),7,10-trien-17-one], the “SK-MEL-5 (% inhibition)” value in the data set on SK-MEL-5 came out at 15%. Moreover, the “SK-MEL-25 (% inhibition)” value in the data set on SK-MEL-25 is reported as 3%. Further, in the data set on SK-MEL-28, the “SK-MEL-28 (% inhibition)” value was 4%.

As to `C[C@]12CCc3sc(Nc4ccc(C(=O)O)cc4)nc3C1=CC[C@@H]1[C@@H]2CC[C@]2(C)C(=O)CC[C@@H]12` [IIa.23, 4-[[(1S,2R,13R,14S,18S)-2,18-dimethyl-17-oxo-6-thia-8-azapentacyclo[11.7.0.02,10.05,9.014,18]icosa-5(9),7,10-trien-7-yl]amino]benzoic acid], the “SK-MEL-5 (% inhibition)” value in the data set with SK-MEL-5 was found to be 43%. Besides, the “SK-MEL-25 (% inhibition)” value with SK-MEL-25 is listed as 71%. The “SK-MEL-28 (% inhibition)” value in the data set on SK-MEL-28 is recorded as 78%.

For the compound `CCNc1nc2c(s1)CC[C@@]1(C)C2=CC[C@@H]2[C@@H]1CC[C@]1(C)C(=O)CC[C@@H]21` [IIa.30, (1S,2R,13R,14S,18S)-7-(ethylamino)-2,18-dimethyl-6-thia-8-azapentacyclo[11.7.0.02,10.05,9.014,18]icosa-5(9),7,10-trien-17-one], the “SK-MEL-5 (% inhibition)” value in the data set with SK-MEL-5 was determined as 26%. Also, the “SK-MEL-25 (% inhibition)” value in the data set on SK-MEL-25 is 4%. Also, the “SK-MEL-28 (% inhibition)” value with SK-MEL-28 is listed as 67%.
